This is an account of results in PubChem BioAssay AID1602 (NINDS Approved Drug Screening Program, 2009).

Inconclusive results are not listed. Peptide text beside a SMILES is read from it.

For the experiment, the system named is mutant SOD1 toxicity cell model, protection read-out. In words: cell protection against mutant SOD1 damage (AID 1602).

Take `Cn1nnnc1SCC1=C(C(=O)O)N2C(=O)C(NC(=O)C(OC=O)c3ccccc3)C2SC1` (centres undefined): the concentration for a half-maximal effect (EC50) is 50 µM.
Turning to `Cc1ccc(C(=O)C(C)CN2CCCCC2)cc1` (centres undefined), the EC50 was 50 µM.
In the case of `CC(=O)Nc1cc([As](=O)(O)O)ccc1O` it was 50 µM.
The value for `NC(N)=NC(N)=Nc1ccccc1` was 50 µM.
The value for `COc1c2occc2c(OC)c2c(=O)cc(C)oc12` was 75 µM; that for `CCN1CCN(C(=O)NC(C(=O)NC2C(=O)N3C(C(=O)O)=C(CSc4nnnn4C)CSC23)c2ccc(O)cc2)C(=O)C1=O` (centres undefined) was 50 µM.
For the compound `COC(=O)C1[C@H]2C[C@H]3c4[nH]c5ccccc5c4CCN3C[C@@H]2CC[C@@H]1O` (some centres undefined), the EC50 was 50 µM.
For `CN1C2CCC1CC(OC(=O)C(CO)c1ccccc1)C2` (centres undefined), the EC50 is 50 µM.
With `O=C(O)c1ccccc1OP(=O)(O)O`, the half-maximal effective concentration (EC50) is 75 µM.
Take `CC(C)CC1NC(=O)CNC1=O` (centres undefined): the 50% effective concentration (EC50) is 50 µM.
In the case of `c1ccc2c(CC3=NCCN3)cccc2c1` it was 50 µM; in that of `Nc1ccc(S(N)(=O)=O)cc1`, 50 µM.
Consider `CCN1C[C@@]2(COC)C3[C@@H](OC)[C@H]4[C@@H]1[C@]3(C(OC)C[C@H]2O)C1C[C@@]2(O)[C@H](OC(=O)c3ccccc3)C1[C@]4(OC(C)=O)[C@@H](O)[C@@H]2OC` (some centres undefined), for which the concentration giving a half-maximal response (EC50) was 50 µM.
Take `O=C1NCC2(CCN(CCc3ccccc3)CC2)O1`: the EC50 is 50 µM.
As for `CC(=O)OCC1=C(C(=O)O)N2C(=O)[C@@H](NC(=O)CSc3ccncc3)[C@H]2SC1`, the EC50 was 50 µM.
In the case of `CN(C)CCOC(=O)C(c1ccccc1)C1(O)CCCC1` (centres undefined) it was 50 µM.
For `CN[C@H](CC(=O)O)C(=O)O`, the EC50 was 50 µM.
Take `CC(C(=O)O)c1cccc(C(=O)c2ccccc2)c1` (centres undefined): the concentration giving a half-maximal response (EC50) was 75 µM.
`C[C@H](CS)C(=O)N1CCC[C@H]1C(=O)O`: the EC50 was 75 µM.
For `NCCCC(=O)O`, the EC50 is 50 µM.
`CNCCc1ccccn1`: the half-maximal effective concentration (EC50) is 50 µM.
On to `Nc1ccc(S(=O)(=O)Nc2nccs2)cc1`, for which the EC50 is 50 µM.
`CC[N+]1(C)CCCC(OC(=O)C(O)(c2ccccc2)c2ccccc2)C1` (centres undefined): the concentration for a half-maximal effect (EC50) is 50 µM.
For the compound `CCn1cc(C(=O)O)c(=O)c2cc(F)c(N3CCNCC3)cc21`, the EC50 was 75 µM.
The value for `NCCCCC(N)C(=O)NC(Cc1ccc(O)cc1)C(=O)NC(CCCCN)C(=O)O` (stereo not drawn) (H-Lys-Tyr-Lys-OH; configuration not given here) was 75 µM.
In the case of `Cc1ccc(/C(=C\CN2CCCC2)c2ccccn2)cc1` it was 50 µM; in that of `NC[C@@H]1O[C@H](O[C@@H]2[C@@H](CO)OC(O[C@@H]3[C@@H](O)[C@H](N)C[C@H](N)[C@H]3OC3O[C@H](CN)[C@@H](O)[C@H](O)[C@H]3N)[C@@H]2O)[C@H](N)[C@@H](O)[C@@H]1O` (some centres undefined), 50 µM.
`CO/N=C(\C(=O)NC1C(=O)N2C(C(=O)O)=C(CSc3nc(=O)c(O)nn3C)CS[C@H]12)c1csc(N)n1` (some centres undefined): the EC50 is 75 µM.
Regarding `CO/N=C(/C(=O)NC1C(=O)N2C(C(=O)O)=C(COC(N)=O)CSC12)c1ccco1` (centres undefined), the EC50 is 50 µM.
Consider `C[C@H](CCC(=O)O)[C@H]1CCC2C3C(=O)CC4CC(=O)CC[C@]4(C)C3CC(=O)[C@@]21C` (some centres undefined), for which the EC50 was 50 µM.
Consider `CC(CCc1ccccc1)NCC(O)c1ccc(O)c(C(N)=O)c1` (centres undefined), for which the EC50 was 50 µM.
As to `CC(COc1ccccc1)NC(C)[C@H](O)c1ccc(O)cc1` (some centres undefined), the half-maximal effective concentration (EC50) was 50 µM.
`NC(N)=O`: the EC50 was 75 µM.
Turning to `CC(=O)N[C@@H](CS)C(=O)O`, the EC50 was 50 µM.
